Results: patent publication US9730447B2, “Fungicidal amides” (E I DU PONT DE NEMOURS AND COMPANY, priority 2013, dated 2017)
Marks after values point to notes of the source that are not given here.

How the values were obtained:
Botrytis cinerea = experiment: Test A: preventive spray on tomato seedlings, Botrytis cinerea (gray mold), visual disease rating; assay type: in vivo; conditions: for pest or weed control at 40 µg/mL, 160 g/ha: 96 h
How it was run: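 Tomato seedlings sprayed to run-off with 40 ppm or 10 ppm suspensions (160 or 40 g ai/ha) in acetone/water with 250 ppm surfactant. Inoculated with B. cinerea spores next day, held saturated at 20 °C for 48 h, then 27 °C for 2 days. Visual rating, 0–100% disease control relative to controls.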

[1] = system: Erysiphe graminis f. sp. tritici; experiment: Test E: preventive spray on wheat seedlings, Erysiphe graminis f. sp. tritici (wheat powdery mildew), visual disease rating; assay type: in vivo
How it was run: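 Wheat seedlings were sprayed to run-off with 40 or 10 ppm suspension (160 or 40 g ai/ha) and dusted with spores the next day. They were then kept 8 days at 20 °C. Disease was rated visually as % control relative to untreated controls (0–100).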

[2] = system: Puccinia recondite f. sp. tritici; experiment: Test D: preventive spray on wheat seedlings, Puccinia recondite f. sp. tritici (wheat leaf rust), visual disease rating; assay type: in vivo
How it was run: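 Wheat seedlings sprayed to run-off with 40 ppm (160 g ai/ha) or 10 ppm (40 g ai/ha) suspension in acetone/water with 250 ppm surfactant, inoculated next day with leaf rust spores. After 24 h saturated at 20 °C then 6 days at 20 °C, visual rating of disease control (0–100) relative to controls.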

Septoria tritici = experiment: Test C: preventive spray on wheat seedlings, Septoria tritici (wheat leaf blotch), visual disease rating; assay type: in vivo
How it was run: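 Wheat seedlings sprayed to run-off at 40 ppm or 10 ppm (160 or 40 g ai/ha) in acetone/water with surfactant, inoculated with Septoria tritici spores next day. Held 48 h saturated at 24 °C, then 21 days at 20 °C. Visual rating scored as % disease control relative to controls.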

[3] = system: Stagonospora nodorum (also known as Septoria nodorum); experiment: Test B: preventive spray on wheat seedlings, Stagonospora nodorum (wheat glume blotch), visual disease rating; assay type: in vivo
How it was run: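 Compounds in acetone/water (50/50) with 250 ppm Trem 014 surfactant were sprayed to run-off at 40 ppm (160 g ai/ha) or 10 ppm (40 g ai/ha). Seedlings were inoculated with S. nodorum spores the next day, then held 48 h saturated at 20 °C and 6 days in a growth chamber at 20 °C. Visual rating as % disease control vs untreated.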

[4] = 100 = 100% disease control, 0 = no control relative to controls, unmarked values
[5] = 100 = 100% disease control, 0 = no control, unmarked values
[6] = values marked with asterisk (*), meaning not given

Molecule | pest or weed control at 40 µg/mL, 160 g/ha (Botrytis cinerea; [4]) [%] | melting point [°C] | Test A disease control rating (Botrytis cinerea; [4]) [%] | Test E disease control rating [1, 5] [%] | Test D disease control rating [2, 5] [%] | Test C disease control rating (Septoria tritici; [5]) [%] | Test B disease control rating [3, 5] [%] | Test A disease control rating (Botrytis cinerea; [6]) | Test E disease control rating [1, 6] | Test D disease control rating [2, 6] | Test C disease control rating (Septoria tritici; [6]) | Test B disease control rating [3, 6]
Cn1cc(C(=O)Nc2ccccc2-c2cnc(-n3ccc(C(F)(F)F)n3)nc2)c(C(F)F)n1 [Compound 58, 3-(difluoromethyl)-1-methyl-N-[2-[2-[3-(trifluoromethyl)-1H-pyrazol-1-yl]-5-pyrimidinyl]phenyl]-1H-pyrazole-4-carboxamide] | 0 | 167 to 169 |  |  |  |  |  |  |  |  |  | 
Cn1cc(C(=O)Nc2ccccc2-c2ccc(-n3ccc(C(F)(F)F)n3)nc2)c(C(F)F)n1 [Compound 51, 3-(difluoromethyl)-N-[2-[6-[3-(trifluoromethyl)-1H-pyrazol-1-yl]-3-pyridinyl]phenyl]-1-methyl-1H-pyrazole-4-carboxamide] | 97 | 157 to 159 |  |  |  |  |  |  |  |  |  | 
Cn1cc(C(=O)Nc2ccccc2-c2ccc(-n3ccc(C(F)(F)F)n3)nn2)c(C(F)F)n1 [Compound 54, 3-(difluoromethyl)-1-methyl-N-[2-[6-[3-(trifluoromethyl)-1H-pyrazol-1-yl]-3-pyridazinyl]phenyl]-1H-pyrazole-4-carboxamide] | 0 | 248 to 250 |  |  |  |  |  |  |  |  |  | 
N-[2-[5-fluoro-6-[3-(trifluoromethyl)-1H-pyrazol-1-yl]-3-pyridinyl]phenyl]-3-(trifluoromethyl)-2-pyridinecarboxamide [Compound 50] |  |  | 99 | 100 | 100 | 100 | 100 |  |  |  |  | 
O=C(Nc1ccccc1-c1ccc(-n2nc(C(F)(F)F)cc2O)nc1)c1ncccc1C(F)(F)F [compound 82] |  |  |  |  |  |  |  | 31* % | 0* % | 97* % | 48* % | 97* %
O=C(Nc1ccccc1-c1ccc(C2=NOC(c3cc(F)cc(F)c3)C2)nc1)c1ncccc1C(F)(F)F (racemic) [compound 19] |  |  | 98 | 87 | 100 | 100 | 100 |  |  |  |  | 
O=C(Nc1ccccc1-c1ccc(-n2ccc(C(F)(F)F)n2)nc1)c1ncccc1Cl [compound 23] |  |  | 20 | 99 | 96 | 100 | 0 |  |  |  |  | 
O=C(Nc1ccccc1-c1cnc(-n2cc(Cl)cn2)c(F)c1)c1ccccc1C(F)(F)F [compound 78] |  |  | 28 | 97 | 100 | 100 | 0 |  |  |  |  | 
O=C(Nc1ccccc1-c1cnc(-n2ccc(C(F)(F)F)n2)nc1)c1nccnc1Cl [compound 55] |  |  | 0 | 0 | 91 | 100 | 0 |  |  |  |  | 
O=C(Nc1ccccc1-c1ccc(-n2ccc(C(F)(F)F)n2)nc1)c1nccnc1Cl [compound 25] |  |  | 99 | 90 | 98 | 100 | 82 |  |  |  |  | 
Cc1cnn(-c2ccc(-c3ccccc3NC(=O)c3ccccc3C(F)(F)F)cn2)c1 [compound 43] |  |  | 94 | 92 | 74 | 98 | 99 |  |  |  |  | 
N#Cc1cnn(-c2ncc(-c3ccccc3NC(=O)c3ncccc3C(F)(F)F)cc2F)c1 [compound 85] |  |  | 70 | 0 | 99 | 45 | 0 |  |  |  |  | 
O=C(Nc1ccccc1-c1cnc(-n2ccc(C(F)(F)F)n2)cn1)c1ccccc1C(F)(F)F [Compound 1, 2-(trifluoromethyl)-N-[2-[5-[3-(trifluoromethyl)-1H-pyrazol-1-yl]-2-pyrazinyl]phenyl]benzamide] | 27 | 180 to 182 |  |  |  |  |  |  |  |  |  | 
Cn1cc(C(=O)Nc2ccccc2-c2cnc(-n3ccc(C(F)(F)F)n3)c(Cl)c2)c(C(F)F)n1 [compound 35] |  |  | 97 | 100 | 100 | 100 | 100 |  |  |  |  | 
Cn1cc(C(=O)Nc2ccccc2-c2ccc(-n3ccc(-c4ccc(F)cc4F)n3)nc2)c(C(F)F)n1 [compound 101] |  |  | 71 | 92 | 100 | 94 | 60 |  |  |  |  | 
Cc1ccc(-c2ccc(-c3ccccc3NC(=O)c3cn(C)nc3C(F)F)cn2)o1 [compound 22] |  |  | 94 | 21 | 100 | 33 | 0 |  |  |  |  | 
O=C(Nc1ccccc1-c1ccc(C2=NOC(c3cccc(F)c3)C2)nc1)c1ncccc1C(F)(F)F (racemic) [compound 17] |  |  | 98 | 0 | 99 | 100 | 100 |  |  |  |  | 
O=C(Nc1ccccc1-c1cnc(-n2ccc(C(F)(F)F)n2)c(Cl)c1)c1ccccc1C(F)(F)F [compound 33] |  |  | 15 | 99 | 100 | 100 | 60 |  |  |  |  | 
O=C(Nc1ccccc1-c1ccc(C2=NOC(c3ccc(F)cc3)C2)nc1)c1ncccc1C(F)(F)F (racemic) [compound 6] |  |  | 99 | 0 | 100 | 99 | 100 |  |  |  |  | 
Cc1cc(-c2ccccc2NC(=O)c2cn(C)nc2C(F)F)cnc1-n1cc(Cl)cn1 [compound 65] |  |  | 99 | 94 | 100 | 100 | 97 |  |  |  |  | 
Cc1cc(C)n(-c2ccc(-c3ccccc3NC(=O)c3ncccc3C(F)(F)F)cn2)n1 [compound 52] |  |  | 36 | 50 | 96 | 99 | 0 |  |  |  |  | 
COc1ccccc1-c1ccn(-c2ccc(-c3ccccc3NC(=O)c3cn(C)nc3C(F)F)cn2)n1 [compound 98] |  |  | 67 | 48 | 100 | 75 | 0 |  |  |  |  | 
O=C(Nc1ccccc1-c1cnc(-n2cc(Cl)cn2)c(F)c1)c1ncccc1C(F)(F)F [compound 70] |  |  | 99 | 100 | 100 | 100 | 99 |  |  |  |  | 
O=C(Nc1ccccc1-c1cnc(-n2ccc(C(F)(F)F)n2)nc1)c1ncccc1C(F)(F)F [Compound 56, 3-(trifluoromethyl)-N-[2-[2-[3-(trifluoromethyl)-1H-pyrazol-1-yl]-5-pyrimidinyl]phenyl]-2-pyridinecarboxamide] | 16 | 178 to 180 |  |  |  |  |  |  |  |  |  | 
O=C(Nc1ccccc1-c1ccc(-n2cc(Cl)cn2)nc1)c1ccccc1C(F)(F)F [compound 66] |  |  | 32 | 0 | 89 | 18 | 0 |  |  |  |  | 
O=C(Nc1ccccc1-c1ccc(-n2ccc(-c3ccccc3)n2)nc1)c1ncccc1C(F)(F)F [compound 39] |  |  | 45 | 89 | 92 | 92 | 0 |  |  |  |  | 
O=C(Nc1ccccc1-c1ccc(-n2ccc(C(F)(F)F)n2)nn1)c1ccccc1C(F)(F)F [compound 57] |  |  | 0 | 0 | 100 | 32 | 0 |  |  |  |  | 
